Read-outs that look alike come from different tables or passages of the source. Marks after values point to notes of the source that are not given here.
Key:
MCF-7 = test: MTT test of overall cell growth, MCF-7 breast cancer cells, normoxia or hypoxia; format: cell-based, human; details: for IC50: Homo sapiens, MCF7; for Selectivity: MCF-7, IC50 (normoxia)/IC50 (hypoxia 1% O2), if u.t.d., ratio of activity at 100 μM
Procedure: (§1) MTT tests were performed in order to rapidly, i.e. within 3 days, measure the effect of compounds of this invention on the overall cell growth. The test measured the number of metabolically active living cells that were able to transform the yellow product 3-(4,5-dimethylthiazol-2-yl)-2,5-diphenyl tetrazolium bromide (herein referred as MTT) into the blue product formazan dye by mitochondrial reduction. The amount of formazan obtained at the end of the experiment, measured by means of a spectrophotometer (Plate Reader Victor X4 Microplate reader (Perkin Elmer), is directly proportional to the number of living cells. Optical density determination thus enabled a quantitative measurement of the effect of the investigated compounds under control conditions (normoxia) as compared to the hypoxic conditions (0.1 or 1% O2) and/or untreated conditions.
(§2) Human umbilical vein endothelial cells (HUVEC) and six human cancer cell lines were used in the MTT tests. These cancer cell lines cover five histological cancer types including cervix (SiHa), breast (MCF-7 and MDA-MB231), prostate (PC3), glioma (U373), and colorectal (LoVo) cancers.
(§3) To perform the assay, cells were allowed to grow in 96-well microplates with a flat bottom following addition of an amount of 100 μl of cell suspension per well with 4,500 cells/well. Each cell line was seeded in its appropriate culture medium. HUVEC were cultured in a specific endothelial cell growth medium (ECACC, Sigma); SiHa cells in Glutamax-containing DMEM with 4.5 g/1 glucose (Invitrogen) supplemented with 10% Foetal Bovine Serum (PAA) and 1% penicillin+streptomycin mix (Invitrogen); MCF-7, MDA-MB-231, PC3, and LoVo cells in Glutamax-containing RPMI supplemented with 10% Foetal Bovine Serum (PAA) and 1% penicillin+streptomycin mix (Invitrogen) and U373 cells in Glutamax-containing DMEM (Invitrogen) with 5% Foetal Bovine Serum (PAA) and 1% penicillin+streptomycin mix (Invitrogen).
(§4) The detailed experimental procedure was the following: after a 24-hour period of incubation at 37° C., the culture medium was replaced by 100 μl of fresh medium in which the tested compound was previously dissolved, at the following concentrations: 10^−8 M, 5.10^−8, 10^−7, 5.10^−7, 10^−6, 5.10^−6, 10^−5, 5.10^−5 and 10^−[…]. Each experiment was performed in sestuplicates (6 times).
(§5) Cells were then incubated under normoxia in a Binder incubator (the O2 level corresponding to the concentration in the ambient air), or in a Ruskin hypoxia workstation under either 0.1% O2 (v/v) or 1% O2 (v/v). Under both conditions, the atmosphere was humidified and the CO2 concentration was fixed at 5 vol. %.
(§6) After 72 hours of incubation at 37° C. under normoxic or hypoxic conditions, with or without the compound to be tested, the medium was replaced by 100 μl of HBSS (without phenol red) containing MTT at a concentration of 0.5 or 1 mg/ml. The micro-wells were subsequently incubated during 3 hours and a half at 37° C. and centrifuged at 1300 rpm during 10 minutes. Medium was removed and formazan crystals formed were dissolved in 100 μl DMSO. The micro-wells were shaken for 5 minutes and read on a spectrophotometer at wavelengths of 570 nm (maximal formazan absorbance).
(§7) For each experimental condition, the mean optical density was calculated, allowing the determination of the percentage of living cells in comparison to the control.

siHa = test: MTT test of overall cell growth, SiHa cervix cancer cells, normoxia or hypoxia; format: cell-based, human; details: for IC50: Homo sapiens; for Selectivity: IC50 (normoxia)/IC50 (hypoxia 1% O2), if u.t.d., ratio of activity at 100 μM
Procedure: as §1, §2, §3, §4, §5, §6, §7

U373 = test: MTT test of overall cell growth, U373 glioma cells, normoxia or hypoxia; format: cell-based, human; details: for IC50: Homo sapiens, U373 MG; for Selectivity: U373, IC50 (normoxia)/IC50 (hypoxia 1% O2), if u.t.d., ratio of activity at 100 μM
Procedure: as §1, §2, §3, §4, §5, §6, §7

PC3 = test: MTT test of overall cell growth, PC3 prostate cancer cells, normoxia or hypoxia; format: cell-based, human; details: for IC50: Homo sapiens, PC-3; for Selectivity: PC3, IC50 (normoxia)/IC50 (hypoxia 1% O2), if u.t.d., ratio of activity at 100 μM
Procedure: as §1, §2, §3, §4, §5, §6, §7

MDA-MB-231 = test: MTT test of overall cell growth, MDA-MB-231 breast cancer cells, normoxia or hypoxia; format: cell-based, human; details: for IC50: Homo sapiens; for Selectivity: MDA-MB-231, IC50 (normoxia)/IC50 (hypoxia 1% O2), if u.t.d., ratio of activity at 100 μM
Procedure: as §1, §2, §3, §4, §5, §6, §7

[1] = tested on: Human umbilical vein endothelial cells (HUVEC); test: MTT test of overall cell growth, endothelial cells, normoxic or hypoxic conditions; format: cell-based; details: for IC50: Homo sapiens, 72 h; for Selectivity: if u.t.d., ratio of activity at 100 μM
Procedure: as §1, §2, §3, §4, §5, §6, §7

LoVo = test: MTT test of overall cell growth, LoVo colorectal cancer cells, normoxia or hypoxia; format: cell-based, human; details: for IC50: Homo sapiens; for Selectivity: IC50 (normoxia)/IC50 (hypoxia 1% O2), if u.t.d., ratio of activity at 100 μM
Procedure: as §1, §2, §3, §4, §5, §6, §7

[2] = MCF-7, hypoxia 1% O2, 72 h, read-out: IC50 (μM) Hypoxia 1% O2
[3] = hypoxia 1% O2, 72 h, read-out: IC50 (μM) Hypoxia 1% O2
[4] = normoxia, 72 h, read-out: IC50 (μM) Normoxia
[5] = U373, hypoxia 1% O2, 72 h, read-out: IC50 (μM) Hypoxia 1% O2
[6] = PC3, hypoxia 1% O2, 72 h, read-out: IC50 (μM) Hypoxia 1% O2
[7] = MDA-MB-231, hypoxia 1% O2, 72 h, read-out: IC50 (μM) Hypoxia 1% O2
[8] = hypoxia 0.1% O2, 72 h, read-out: IC50 (μM) Hypoxia 0.1%
[9] = hypoxia 1% O2, 72 h, read-out: IC50 (μM) Hypoxia 1%
[10] = normoxia, series compared with hypoxia 0.1%, read-out: IC50 (μM) Normoxia
[11] = normoxia, series compared with hypoxia 1%, read-out: IC50 (μM) Normoxia
[12] = IC50 (normoxia)/IC50 (hypoxia 0.1%)
[13] = IC50 (normoxia)/IC50 (hypoxia 1%)

Structure (SMILES) | IC50 (MCF-7; [2]) [µM] | Selectivity (MCF-7) | IC50 (siHa; [3]) [µM] | Selectivity (siHa) | IC50 (U373; [5]) [µM] | Selectivity (U373) | IC50 (PC3; [6]) [µM] | Selectivity (PC3) | IC50 (MDA-MB-231; [7]) [µM] | Selectivity (MDA-MB-231) | IC50 [1, 8] [µM] | IC50 [1, 9] [µM] | IC50 [1, 10] [µM] | IC50 [1, 11] [µM] | Selectivity [1, 12] | Selectivity [1, 13] | IC50 (LoVo; [3]) [µM] | IC50 (LoVo; [4]) [µM] | Selectivity (LoVo) | also measured
C[C@H]1CC[C@H]2[C@H](C1)c1c(c3ccccc3c3nc4ccc(C(=O)N5CCOCC5)cc4nc13)OC2(C)C (racemic) [Compound 12′] | 1.45 | 7.78 | 1.17 | 62.07 | 0.61 | 15.00 | 1.41 | 10.86 | 1.31 | 33.85 | 0.04 | 0.14 | 4.24 | 4.14 | 105 | 29 | 1.21 | 10.6 | 8.75 | IC50 (MCF-7; MCF-7, normoxia, 72 h, read-out: IC50 (μM) Normoxia): 11.3 µM; IC50 (siHa; [4]): 72.6 µM; IC50 (U373; U373, normoxia, 72 h, read-out: IC50 (μM) Normoxia): 9.08 µM; IC50 (PC3; PC3, normoxia, 72 h, read-out: IC50 (μM) Normoxia): 15.3 µM; IC50 (MDA-MB-231; MDA-MB-231, normoxia, 72 h, read-out: IC50 (μM) Normoxia): 44.4 µM
COC(=O)c1ccc2nc3c(nc2c1)c1c(c2ccccc23)OC(C)(C)[C@H]2CC[C@H](C)C[C@H]12 [Compound 11′] | 150 | >1.52^b | 132 | >1.72^b | 74.9 | >3.03^b | 161 | >1.41^b | 136 | >1.67^b | 13.6 | 11.8 | 225 | 176 | 16.5 | 15 | 154 | 220 | 1.43 | IC50 (μM) Normoxia (MCF-7; MCF-7, normoxia, 72 h): u.t.d.; IC50 (μM) Normoxia (siHa; normoxia, 72 h): u.t.d.; IC50 (μM) Normoxia (U373; U373, normoxia, 72 h): u.t.d.; IC50 (μM) Normoxia (PC3; PC3, normoxia, 72 h): u.t.d.; IC50 (μM) Normoxia (MDA-MB-231; MDA-MB-231, normoxia, 72 h): u.t.d.
